{"source": "patent US12661355B2", "about": "“Compounds and methods for inducing UCP1 expression” (The Regents of the University of California, priority 2020, dated 2026)", "key": {"[1]": {"molecular_target": "T1, AKAP1 (Mus musculus, UniProt O08715)", "T1 construct": "from tissue; host or cells: mouse brown adipose tissue (BAT) lysate; also mouse brown adipocyte extracts", "T1 sequence (O08715 30-857)": "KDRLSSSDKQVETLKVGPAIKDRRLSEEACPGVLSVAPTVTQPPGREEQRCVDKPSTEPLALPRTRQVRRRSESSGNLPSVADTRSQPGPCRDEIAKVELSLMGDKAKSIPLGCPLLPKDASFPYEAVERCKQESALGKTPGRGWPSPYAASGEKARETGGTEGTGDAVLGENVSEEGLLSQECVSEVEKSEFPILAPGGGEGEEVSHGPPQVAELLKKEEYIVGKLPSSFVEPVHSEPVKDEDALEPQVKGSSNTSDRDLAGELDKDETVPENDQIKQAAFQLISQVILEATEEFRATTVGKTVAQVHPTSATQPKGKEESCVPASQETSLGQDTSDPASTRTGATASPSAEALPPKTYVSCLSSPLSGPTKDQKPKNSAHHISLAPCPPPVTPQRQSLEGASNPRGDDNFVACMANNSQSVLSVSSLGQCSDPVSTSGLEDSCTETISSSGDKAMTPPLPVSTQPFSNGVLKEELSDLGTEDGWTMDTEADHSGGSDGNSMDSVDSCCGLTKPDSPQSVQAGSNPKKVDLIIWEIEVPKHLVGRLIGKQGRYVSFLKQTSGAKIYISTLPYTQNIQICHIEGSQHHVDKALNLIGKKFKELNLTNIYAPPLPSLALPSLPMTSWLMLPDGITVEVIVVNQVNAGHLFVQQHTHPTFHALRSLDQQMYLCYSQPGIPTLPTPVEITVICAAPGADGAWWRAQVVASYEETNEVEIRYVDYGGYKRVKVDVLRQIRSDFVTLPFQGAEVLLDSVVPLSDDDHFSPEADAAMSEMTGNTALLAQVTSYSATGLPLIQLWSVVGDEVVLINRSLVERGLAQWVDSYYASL", "assay": "Cellular Thermal Shift Assay (CETSA) in brown adipocytes, AKAP1", "assay_type": "binding", "details": "10 μM for 8 h, heated at 55.8-63.3° C.", "experimental": "(§1) CETSA assays were performed according to known methods. Briefly, differentiated brown adipocytes (one 10 cm dish per treatment) were treated with vehicle or compounds, trypsinized, counted, and re-suspended in approximately 450 μl PBS containing protease inhibitors (volumes were adjusted to have the same number of cells in each treatment). For each sample, 18 μl was distributed into each of 7 PCR tubes. Samples were heated using a thermocycler with a temperature gradient (iCycler, Biorad) for 3 min, followed by 3 min at room temperature, and then snap-frozen in liquid N2. After two freeze-thaw cycles, samples were centrifuged at 20,000 g for 15 min at 4° C., and the supernatants were transferred to another set of tubes. Proteins were analyzed by immunoblotting.\nThe PKA tetramer consists of two catalytic and two regulatory subunits. In the mouse, these are catalytic subunits C-α and C-β, and regulatory subunits RI and RII, each with α and β isoforms (RI-α, RI-β, RII-α, RII-β). […]\n(§2) The potential interaction of Z160 with PKA subunits and AKAPs was assessed first by identifying which PKA subunits and AKAP isoforms are normally present in BAT. […] To perform the CETSA assays, cultured brown adipocytes were incubated with 10 μM Z160 for 8 h, after which the thermal shift was analyzed by Western blot."}, "[2]": {"molecular_target": "T2, cGMP-dependent kinase 1 (PKG-1) (Mus musculus, UniProt P0C605)", "T2 construct": "endogenous in cells; host or cells: immortalized mouse brown adipocytes", "T2 sequence (P0C605 whole entry)": "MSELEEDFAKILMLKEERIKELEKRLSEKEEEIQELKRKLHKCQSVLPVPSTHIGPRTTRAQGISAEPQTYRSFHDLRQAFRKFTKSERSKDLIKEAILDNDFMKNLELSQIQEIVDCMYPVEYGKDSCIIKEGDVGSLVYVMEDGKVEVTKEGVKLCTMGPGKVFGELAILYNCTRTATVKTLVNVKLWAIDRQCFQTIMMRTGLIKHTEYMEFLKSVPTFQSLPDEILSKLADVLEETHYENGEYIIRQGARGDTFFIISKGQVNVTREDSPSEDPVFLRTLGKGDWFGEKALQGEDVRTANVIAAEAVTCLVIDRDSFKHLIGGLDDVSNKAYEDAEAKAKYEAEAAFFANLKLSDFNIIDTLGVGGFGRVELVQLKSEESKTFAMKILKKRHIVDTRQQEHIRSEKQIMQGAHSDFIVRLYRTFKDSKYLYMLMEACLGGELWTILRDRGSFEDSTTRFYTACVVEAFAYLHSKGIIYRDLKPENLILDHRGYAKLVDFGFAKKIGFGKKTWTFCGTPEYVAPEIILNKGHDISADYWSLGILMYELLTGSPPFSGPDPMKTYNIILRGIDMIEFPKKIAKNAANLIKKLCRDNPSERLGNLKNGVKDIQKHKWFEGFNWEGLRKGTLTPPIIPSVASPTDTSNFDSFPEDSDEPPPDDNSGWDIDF", "assay": "CETSA in brown adipocytes, PKG-1", "assay_type": "binding", "details": "10 μM for 8 h", "experimental": "as §1, §2"}, "[3]": {"test_system": "human white adipocyte cell line", "assay": "Cellular respiration in human white adipocytes", "assay_type": "cell-based", "details": "10 μM for 4 days", "experimental": "Human immortalized brown and white preadipocytes were obtained from Dr. Yu-Hua Tseng (Joslin Diabetes Center, Harvard Medical School, USA). The generation of the two cell lines from human neck adipose tissue biopsies and immortalization was performed as previously described but from a different donor. Cells were cultured in high glucose DMEM supplemented with 10% FBS and antibiotics. Two days after reaching confluence, cells were treated with 30 μM biotin, 500 nM insulin, 17 μM pantothenate, 100 nM dexamethasone, 2 nM 3,3′,5-Triiodo-L-thyronine, 500 μM IBMX, 30 μM indomethacin and 1 μM rosiglitazone, for 12 days. […]\nCellular respiration was measured using a Seahorse XF24 or XF96 analyzer (Agilent) following known protocols Immortalized brown adipocytes were differentiated in 6-well plates and replated in the Seahorse XF24 plates at a density of 50,000 cells per well using trypsin and collagenase type II. […] Oxygen consumption rates were measured before and after the sequential injection of 1 μM oligomycin, 1 μM FCCP, and 0.5 μM rotenone/antimycin A. For these cells, results were normalized to cell count determined by nuclei fluorescent staining with Hoescht staining imaged on Cytation 5 Imaging Reader and analysis with Gen5 software (BioTek). […] Maximal respiration was determined after FCCP injection."}}, "data": [{"compound": "COc1ccc(NC(=O)CSc2nc3ccccc3c(=O)[nH]2)c(OC)c1", "note": "[Z160]", "values": [{"measurement": "heat stability of AKAP1", "setting": "[1]", "result": "increased the heat stability"}, {"measurement": "heat stability of PKG-1", "setting": "[2]", "result": "did not influence the heat stability"}, {"measurement": "maximal respiration", "setting": "[3]", "result": "increased"}, {"measurement": "mitochondrial respiration (uncoupled)", "setting": "[3]", "result": "increased"}]}]}
